Data reported in patent publication US20220120736A1, “METHODS AND ASSAYS FOR MODULATING GENE TRANSCRIPTION BY MODULATING CONDENSATES” (Whitehead Institute for Biomedical Research, priority 2018, published 2022).

Tested on: MED1 signal at the MYC locus in MCF7 cells
Experiment: Immunofluorescence for MED1 with DNA FISH at the MYC locus
Format: cell-based, human
Details: MCF7 cells estrogen-deprived 3 days; 10 uM estradiol, or 10 uM estradiol and 5 uM 4-hydroxytamoxifen, 45 minutes
Method: Human tumor tissues sliced at 10 μm thickness or cells grown on Poly-L-Ornithine coated glass were washed once with PBS and fixed in 4% Paraformaldehyde, PFA, (VWR, BT140770) for 10 minutes. After three washes in PBS for 5 min, cells were stored at 4° C. or transferred to a humidifying chamber and processed for immunofluorescence. Permeabilization of cells was performed using 0.5% triton X100 (Sigma Aldrich, X100) in PBS for 10 minutes followed by three PBS washes. Cells were blocked with 4% IgG-free Bovine Serum Albumin, BSA, (VWR, 102643-516) for 30 minutes and the indicated primary antibody (ER ab32063, MED1 ab64965) was added at a concentration of 1:500 in 4% IgG-free Bovine Serum Albumin for 4-16 hours. […]
For analysis of RNA/DNA FISH with immunofluorescence, custom Python scripts were written to process and analyze 3D image data gathered in FISH and IF channels. […] These FISH foci were filtered by various criteria, including size (minimum 100 voxels), circularity of a max z-projection (circularity=4pi*area/perimeter^2; 0.7), and being present in a nucleus (determined by nuclear mask described above). […] The IF signal centered at FISH foci for each FISH and IF pair are then combined and an average intensity projection is calculated, providing averaged data for IF signal intensity within a l×l square centered at FISH foci. […]

SMILES | MED1 signal at MYC
C[C@]12CC[C@@H]3c4ccc(O)cc4CC[C@H]3[C@@H]1CC[C@@H]2O [estrogen, B-Estradiol] | enhanced
CC/C(=C(\c1ccccc1)c1ccc(OCCN(C)C)cc1)c1ccccc1 [tamoxifen] | reduced
